“And” between values parts separate entries of the source, which are not always exact repeats. Equal entries are not always repeated. Inconclusive results and toxic doses are left out.
System: CD2F1 mice, L1210 leukemia ip, survival T/C
Assay: NCI In Vivo Anticancer Drug Screen. Data for tumor model L1210 Leukemia (intraperitoneal) in CD2F1 (CDF1) mice
Details: higher = longer survival
Method in brief: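 Transplantable tumor in mice; compound-treated vs vehicle-treated groups. Read-out = treated/control ratio of the measured endpoint.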

C[n+]1ccc(Nc2ccc(NC(=O)c3ccc(Nc4cc[n+](C)c5ccc(N)cc45)cc3)cc2)cc1
T/C (endpoint: mean survival time, dose: 2.0 mg/kg/injection, schedule: Q01DX009 (ip), vehicle: water): 313 % of control
T/C (endpoint: mean survival time, dose: 4.0 mg/kg/injection, schedule: Q01DX009 (ip), vehicle: water): 341 % of control
T/C (endpoint: median survival time, dose: 0.25 mg/kg/injection, schedule: Q03HX008 (ip), vehicle: water): 100 % of control
T/C (endpoint: median survival time, dose: 0.25 mg/kg/injection, schedule: Q03HX016 (ip), vehicle: water): 102 % of control
T/C (endpoint: median survival time, dose: 0.25 mg/kg/injection, schedule: Q03HX024 (ip), vehicle: water): 110 % of control
T/C (endpoint: median survival time, dose: 0.5 mg/kg/injection, schedule: Q01DX005 (ip), vehicle: water): 120 % of control
T/C (endpoint: median survival time, dose: 0.5 mg/kg/injection, schedule: Q01DX009 (ip), vehicle: water): 123 % of control
T/C (endpoint: median survival time, dose: 0.5 mg/kg/injection, schedule: Q01DX009 (sc), vehicle: water): 96 % of control
T/C (endpoint: median survival time, dose: 0.5 mg/kg/injection, schedule: Q03HX008 (ip), vehicle: water): 113 % of control
T/C (endpoint: median survival time, dose: 0.5 mg/kg/injection, schedule: Q03HX016 (ip), vehicle: water): 109 % of control
T/C (endpoint: median survival time, dose: 1.0 mg/kg/injection, schedule: Q01DX009 (sc), vehicle: water): 101 % of control
T/C (endpoint: median survival time, dose: 1.0 mg/kg/injection, schedule: Q03HX016 (ip), vehicle: water): 158 % of control
T/C (endpoint: median survival time, dose: 1.0 mg/kg/injection, schedule: Q03HX024 (ip), vehicle: water): 180 % of control
T/C (endpoint: median survival time, dose: 2.0 mg/kg/injection, schedule: Q01DX001 (ip), vehicle: water): 103 % of control
T/C (endpoint: median survival time, dose: 2.0 mg/kg/injection, schedule: Q01DX001 (sc), vehicle: water): 97 % of control
T/C (endpoint: median survival time, dose: 2.0 mg/kg/injection, schedule: Q01DX005 (ip), vehicle: water): 164 % of control
T/C (endpoint: median survival time, dose: 2.0 mg/kg/injection, schedule: Q01DX009 (ip), vehicle: water): 274 % of control
T/C (endpoint: median survival time, dose: 2.0 mg/kg/injection, schedule: Q01DX009 (oral), vehicle: water): 100 % of control
T/C (endpoint: median survival time, dose: 2.0 mg/kg/injection, schedule: Q01DX009 (sc), vehicle: water): 157 % of control
T/C (endpoint: median survival time, dose: 2.0 mg/kg/injection, schedule: Q03HX008 (ip), vehicle: water): 157 % of control
T/C (endpoint: median survival time, dose: 2.0 mg/kg/injection, schedule: Q03HX016 (ip), vehicle: water): 185 % of control
T/C (endpoint: median survival time, dose: 2.0 mg/kg/injection, schedule: Q03HX024 (ip), vehicle: water): 256 % of control
T/C (endpoint: median survival time, dose: 2.0 mg/kg/injection, schedule: Q04DX003 (ip), vehicle: water): 113 % of control
T/C (endpoint: median survival time, dose: 4.0 mg/kg/injection, schedule: Q01DX001 (ip), vehicle: water): 114 % of control
T/C (endpoint: median survival time, dose: 4.0 mg/kg/injection, schedule: Q01DX001 (sc), vehicle: water): 100 % of control
T/C (endpoint: median survival time, dose: 4.0 mg/kg/injection, schedule: Q01DX005 (ip), vehicle: water): 252 % of control
T/C (endpoint: median survival time, dose: 4.0 mg/kg/injection, schedule: Q01DX009 (ip), vehicle: water): 373 % of control
T/C (endpoint: median survival time, dose: 4.0 mg/kg/injection, schedule: Q01DX009 (oral), vehicle: water): 97 % of control
T/C (endpoint: median survival time, dose: 4.0 mg/kg/injection, schedule: Q01DX009 (sc), vehicle: water): 241 % of control
T/C (endpoint: median survival time, dose: 4.0 mg/kg/injection, schedule: Q03HX008 (ip), vehicle: water): 175 % of control
T/C (endpoint: median survival time, dose: 4.0 mg/kg/injection, schedule: Q03HX016 (ip), vehicle: water): 212 % of control
T/C (endpoint: median survival time, dose: 4.0 mg/kg/injection, schedule: Q03HX024 (ip), vehicle: water): 321 % of control
T/C (endpoint: median survival time, dose: 4.0 mg/kg/injection, schedule: Q08DX002 (ip), vehicle: water): 164 % of control
T/C (endpoint: median survival time, dose: 8.0 mg/kg/injection, schedule: Q01DX001 (oral), vehicle: water): 92 % of control
T/C (endpoint: median survival time, dose: 8.0 mg/kg/injection, schedule: Q01DX001 (sc), vehicle: water): 105 % of control
T/C (endpoint: median survival time, dose: 8.0 mg/kg/injection, schedule: Q01DX009 (ip), vehicle: water): 332 % of control
T/C (endpoint: median survival time, dose: 8.0 mg/kg/injection, schedule: Q01DX009 (oral), vehicle: water): 98 % of control
T/C (endpoint: median survival time, dose: 8.0 mg/kg/injection, schedule: Q01DX009 (sc), vehicle: water): 307 % of control
T/C (endpoint: median survival time, dose: 8.0 mg/kg/injection, schedule: Q04DX003 (ip), vehicle: water): 157 % of control
T/C (endpoint: median survival time, dose: 16.0 mg/kg/injection, schedule: Q01DX001 (oral), vehicle: water): 98 % of control
T/C (endpoint: median survival time, dose: 16.0 mg/kg/injection, schedule: Q01DX001 (sc), vehicle: water): 121 % of control
T/C (endpoint: median survival time, dose: 16.0 mg/kg/injection, schedule: Q01DX009 (oral), vehicle: water): 100 % of control
T/C (endpoint: median survival time, dose: 16.0 mg/kg/injection, schedule: Q01DX009 (sc), vehicle: water): 120 % of control
T/C (endpoint: median survival time, dose: 32.0 mg/kg/injection, schedule: Q01DX001 (oral), vehicle: water): 96 % of control
T/C (endpoint: median survival time, dose: 32.0 mg/kg/injection, schedule: Q01DX009 (oral), vehicle: water): 98 % of control
T/C (endpoint: median survival time, dose: 64.0 mg/kg/injection, schedule: Q01DX001 (oral), vehicle: water): 100 % of control
T/C (endpoint: median survival time, dose: 64.0 mg/kg/injection, schedule: Q01DX001 (sc), vehicle: water): 208 % of control
T/C (endpoint: median survival time, dose: 64.0 mg/kg/injection, schedule: Q01DX009 (oral), vehicle: water): 100 % of control
T/C (endpoint: median survival time, dose: 128.0 mg/kg/injection, schedule: Q01DX001 (oral), vehicle: water): 102 % of control
T/C (endpoint: median survival time, dose: 256.0 mg/kg/injection, schedule: Q01DX001 (oral), vehicle: water): 92 % of control

CC(=O)c1ccc(N=NNc2ccc(C(C)=O)cc2)cc1
T/C (endpoint: mean survival time, dose: 100.0 mg/kg/injection, schedule: Q01DX001 (ip), vehicle: saline with Tween-80): 103 % of control
T/C (endpoint: mean survival time, dose: 100.0 mg/kg/injection, schedule: Q01DX009 (ip), vehicle: saline with Tween-80): 96 % of control
T/C (endpoint: mean survival time, dose: 200.0 mg/kg/injection, schedule: Q01DX001 (ip), vehicle: saline with Tween-80): 95 % of control
T/C (endpoint: mean survival time, dose: 200.0 mg/kg/injection, schedule: Q01DX009 (ip), vehicle: saline with Tween-80): 95 % of control
T/C (endpoint: mean survival time, dose: 400.0 mg/kg/injection, schedule: Q01DX001 (ip), vehicle: saline with Tween-80): 95 % of control

O=Cc1cc([N+](=O)[O-])cc(CCl)c1O
T/C (endpoint: mean survival time, dose: 25.0 mg/kg/injection, schedule: Q01DX009 (ip), vehicle: Klucel (hydroxypropylcellulose) (HPC)): 95 % of control
T/C (endpoint: mean survival time, dose: 50.0 mg/kg/injection, schedule: Q01DX009 (ip), vehicle: Klucel (hydroxypropylcellulose) (HPC)): 95 % of control
T/C (endpoint: mean survival time, dose: 100.0 mg/kg/injection, schedule: Q01DX009 (ip), vehicle: Klucel (hydroxypropylcellulose) (HPC)): 101 % of control

C=C1C(O)C2(O)OCC34C(CC5C(C)=CC(=O)C(O)C5(C)C23)OC(=O)C(OC(=O)C/C=C/CCCCCCCC)C14 (stereo unspecified)
T/C (endpoint: median survival time, dose: 2.0 mg/kg/injection, schedule: Q01DX005 (ip), vehicle: saline + alcohol): 113 % of control
T/C (endpoint: median survival time, dose: 4.0 mg/kg/injection, schedule: Q01DX005 (ip), vehicle: saline + alcohol): 119 % of control
T/C (endpoint: median survival time, dose: 8.0 mg/kg/injection, schedule: Q01DX005 (ip), vehicle: saline + alcohol): 119 % of control and 124 % of control

NC(N)=NCCNC(=O)C1CCC(N)C1 (stereo unspecified)
T/C (endpoint: mean survival time, dose: 0.63 mg/kg/injection, schedule: Q01DX009 (ip), vehicle: saline): 96 % of control
T/C (endpoint: mean survival time, dose: 1.25 mg/kg/injection, schedule: Q01DX009 (ip), vehicle: saline): 96 % of control

c1cc2c(cc1NC1=NCCO1)CCC2
T/C (endpoint: mean survival time, dose: 6.25 mg/kg/injection, schedule: Q04DX003 (ip), vehicle: saline with Tween-80): 103 % of control
T/C (endpoint: mean survival time, dose: 12.5 mg/kg/injection, schedule: Q04DX003 (ip), vehicle: saline with Tween-80): 108 % of control
T/C (endpoint: mean survival time, dose: 25.0 mg/kg/injection, schedule: Q04DX003 (ip), vehicle: saline with Tween-80): 111 % of control

NC(=O)c1ncn(C2OC(COP(=O)(O)O)C(O)C2O)n1 (stereo unspecified)
T/C (endpoint: mean survival time, dose: 12.5 mg/kg/injection, schedule: Q01DX005 (ip), vehicle: water): 98 % of control
T/C (endpoint: mean survival time, dose: 25.0 mg/kg/injection, schedule: Q01DX005 (ip), vehicle: water): 101 % of control
T/C (endpoint: mean survival time, dose: 50.0 mg/kg/injection, schedule: Q01DX005 (ip), vehicle: water): 102 % of control
T/C (endpoint: mean survival time, dose: 100.0 mg/kg/injection, schedule: Q01DX005 (ip), vehicle: water): 98 % of control
T/C (endpoint: mean survival time, dose: 200.0 mg/kg/injection, schedule: Q01DX005 (ip), vehicle: water): 102 % of control

c1cc(CSc2ncnc3nc[nH]c23)ccn1
T/C (endpoint: mean survival time, dose: 178.0 mg/kg/injection, schedule: Q01DX001 (ip), vehicle: saline): 118 % of control
T/C (endpoint: mean survival time, dose: 267.0 mg/kg/injection, schedule: Q01DX001 (ip), vehicle: saline): 115 % of control
T/C (endpoint: mean survival time, dose: 400.0 mg/kg/injection, schedule: Q01DX001 (ip), vehicle: saline): 119 % of control

C[S+](C)CC(=O)c1ccccc1
T/C (endpoint: mean survival time, dose: 50.0 mg/kg/injection, schedule: Q01DX009 (ip), vehicle: saline): 97 % of control
T/C (endpoint: mean survival time, dose: 100.0 mg/kg/injection, schedule: Q01DX009 (ip), vehicle: saline): 106 % of control
T/C (endpoint: mean survival time, dose: 200.0 mg/kg/injection, schedule: Q01DX009 (ip), vehicle: saline): 107 % of control

CC/C(=C(/CC)c1ccc(OP(N)(=O)N(CCCl)CCCl)cc1)c1ccc(OP(N)(=O)N(CCCl)CCCl)cc1 (stereo unspecified)
T/C (endpoint: mean survival time, dose: 90.0 mg/kg/injection, schedule: Q01DX001 (ip), vehicle: DMSO): 100 % of control
T/C (endpoint: mean survival time, dose: 133.0 mg/kg/injection, schedule: Q01DX001 (ip), vehicle: DMSO): 98 % of control
T/C (endpoint: mean survival time, dose: 200.0 mg/kg/injection, schedule: Q01DX001 (ip), vehicle: DMSO): 102 % of control
T/C (endpoint: mean survival time, dose: 300.0 mg/kg/injection, schedule: Q01DX001 (ip), vehicle: DMSO): 113 % of control
